Results from patent US11986471B2, “Compounds and methods of use” (Tango Therapeutics, Inc., priority 2018, dated 2024).

Columns and labels:
PRMT5 [1] = target: T1, PRMT5 (Homo sapiens, UniProt O14744); test: PRMT5 IC50 assay in the presence of MTA as cofactor; assay type: biochemical; conditions: for IC50: PRMT5, MTA as cofactor; for SAM/MTA Ratio: ratio between Ki in the presence of SAM and Ki in the presence of MTA
T1 construct: purchased Viva (custom protein)
In short: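 MTA-dependent versus SAM-dependent inhibition of human PRMT5 was assessed by IC50; conversion factors of 13.5 and 1.5 gave the corresponding Ki.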

HAP1 MTAP-deleted = test: SDMA in-cell western assay, HAP1 MTAP-deleted cell line; assay type: cell-based; conditions: for IC50: Homo sapiens, HAP1 MTAP-deleted cell line; for MTAP Intact/Deleted Ratio: IC50 ratio HAP1 MTAP-intact / HAP1 MTAP-deleted
In short: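 IC50 from SDMA in-cell western; HAP1 line lacking MTAP (null), paired isogenically with MTAP-intact HAP1 expressing endogenous MTAP.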

PRMT5 [2] = target: T1, PRMT5; test: PRMT5 IC50 assay in the presence of SAM as cofactor; assay type: biochemical
In short: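 Cofactor-free, SAM and MTA formats; IC50 μM; Ki = IC50/1.5 for SAM, IC50/13.5 for MTA.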

PRMT5 [3] = target: T1, PRMT5; test: PRMT5 IC50 assay with no cofactor; assay type: biochemical; conditions: read-out: No Co-factor IC50
In short: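 IC50 values were measured against human PRMT5 with SAM, with MTA, or with no cofactor. Ki was derived from IC50 as Ki=IC50/1.5 with SAM and Ki=IC50/13.5 with MTA, and the Ki(SAM)/Ki(MTA) ratio was then taken.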

HAP1 MTAP-intact = test: SDMA in-cell western assay, HAP1 MTAP-intact cell line; assay type: cell-based; conditions: Homo sapiens
In short: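 HAP1 isogenic pair: endogenous MTAP vs MTAP-null. Readout SDMA by in-cell western; IC50 per line. Ratio ≥3 fold = MTAP-selective.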

T1 sequence (O14744 whole entry): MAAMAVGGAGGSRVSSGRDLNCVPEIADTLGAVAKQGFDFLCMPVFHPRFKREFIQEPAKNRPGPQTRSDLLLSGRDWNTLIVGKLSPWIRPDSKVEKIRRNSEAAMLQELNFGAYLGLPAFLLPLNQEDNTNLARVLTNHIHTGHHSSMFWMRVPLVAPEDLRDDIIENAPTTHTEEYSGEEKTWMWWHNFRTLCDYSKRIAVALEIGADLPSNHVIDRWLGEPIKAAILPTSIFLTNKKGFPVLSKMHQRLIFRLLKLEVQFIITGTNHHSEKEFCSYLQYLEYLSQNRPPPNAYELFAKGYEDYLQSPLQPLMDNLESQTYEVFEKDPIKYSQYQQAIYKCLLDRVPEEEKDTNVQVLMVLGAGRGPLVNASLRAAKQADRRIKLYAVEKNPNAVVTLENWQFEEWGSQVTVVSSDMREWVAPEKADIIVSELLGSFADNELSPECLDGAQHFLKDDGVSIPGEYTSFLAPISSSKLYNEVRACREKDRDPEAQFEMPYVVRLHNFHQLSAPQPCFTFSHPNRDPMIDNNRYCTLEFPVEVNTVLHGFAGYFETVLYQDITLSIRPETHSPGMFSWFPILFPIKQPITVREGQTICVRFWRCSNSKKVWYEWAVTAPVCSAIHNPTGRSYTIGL
T1 sequence (Q9BQA1 whole entry partner): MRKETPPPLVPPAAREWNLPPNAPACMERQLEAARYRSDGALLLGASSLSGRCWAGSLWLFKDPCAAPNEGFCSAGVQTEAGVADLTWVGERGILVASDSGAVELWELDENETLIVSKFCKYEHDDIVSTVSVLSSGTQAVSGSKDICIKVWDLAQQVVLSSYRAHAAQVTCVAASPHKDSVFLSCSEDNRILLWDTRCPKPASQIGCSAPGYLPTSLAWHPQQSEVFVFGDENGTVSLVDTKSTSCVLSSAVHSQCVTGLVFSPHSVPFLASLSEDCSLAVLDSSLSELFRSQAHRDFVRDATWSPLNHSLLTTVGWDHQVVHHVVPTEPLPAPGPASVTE

| Compound | IC50 (PRMT5 [1]) | SAM/MTA Ratio (PRMT5 [1]) | IC50 (HAP1 MTAP-deleted) | MTAP Intact/Deleted Ratio (HAP1 MTAP-deleted) | IC50 (PRMT5 [2]) | IC50 (PRMT5 [3]) | IC50 (HAP1 MTAP-intact) |
| --- | --- | --- | --- | --- | --- | --- | --- |
| O=C(NC[C@H](O)CN1CCc2cc(OCc3cnco3)ccc2C1)c1cncc(NC2CCOC2)c1 (stereo partly drawn) [Compound 355, N—((S)-2-hydroxy-3-(6-(oxazol-5-ylmethoxy)-3,4-dihydroisoquinolin-2(1H)-yl)propyl)-5-((tetrahydrofuran-3-yl)amino)nicotinamide] | 0.05 to 0.5 µM | A (a Ki ratio greater than or equal to 10 fold between the Ki in the presence of SAM and the Ki in the presence of MTA) | ≥ 10 µM | C* (an IC50 ratio of less than 3 fold between the IC50 in the HAP1 MTAP-intact cell line and the HAP1 MTAP-deleted cell line) | 0.5 to 5 µM | ≥ 5 µM | ≥ 10 µM |
| Cc1c(OCc2cnco2)ccc2c1CCN(C[C@@H](O)CNC(=O)c1ccnc(NC3CCCC3)c1)C2 [Compound 356, 2-(cyclopentylamino)-N-[(2S)-2-hydroxy-3-{5-methyl-6-[(1,3-oxazol-5-yl)methoxy]-1,2,3,4-tetrahydroisoquinolin-2-yl}propyl]pyridine-4-carboxamide] | 0.05 to 0.5 µM | A (a Ki ratio greater than or equal to 10 fold between the Ki in the presence of SAM and the Ki in the presence of MTA) | ≥ 10 µM | C* (an IC50 ratio of less than 3 fold between the IC50 in the HAP1 MTAP-intact cell line and the HAP1 MTAP-deleted cell line) | 0.05 to 0.5 µM | ≥ 5 µM | ≥ 10 µM |
| O=C(NC[C@H](O)CN1CCc2c(ccc(OCc3cnco3)c2Cl)C1)c1ccnc(NC2CC(F)(F)C2)c1 [Compound 357, (S)—N-(3-(5-chloro-6-(oxazol-5-ylmethoxy)-3,4-dihydroisoquinolin-2(1H)-yl)-2-hydroxypropyl)-2-((3,3-difluorocyclobutyl)amino)isonicotinamide] | 0.05 to 0.5 µM | A (a Ki ratio greater than or equal to 10 fold between the Ki in the presence of SAM and the Ki in the presence of MTA) | ≥ 10 µM | C* (an IC50 ratio of less than 3 fold between the IC50 in the HAP1 MTAP-intact cell line and the HAP1 MTAP-deleted cell line) | 0.5 to 5 µM | ≥ 5 µM | ≥ 10 µM |
| Cc1ncoc1COc1ccc2c(c1Br)CCN(C[C@@H](O)CNC(=O)c1cc(NC3CCCC3)ncn1)C2 [Compound 358, (S)—N-(3-(5-bromo-6-((4-methyloxazol-5-yl)methoxy)-3,4-dihydroisoquinolin-2(1H)-yl)-2-hydroxypropyl)-6-(cyclopentylamino)pyrimidine-4-carboxamide] | 0.5 to 5 µM | A (a Ki ratio greater than or equal to 10 fold between the Ki in the presence of SAM and the Ki in the presence of MTA) | ≥ 10 µM | C* (an IC50 ratio of less than 3 fold between the IC50 in the HAP1 MTAP-intact cell line and the HAP1 MTAP-deleted cell line) | 0.5 to 5 µM | ≥ 5 µM | ≥ 10 µM |
| O=C(NC[C@H](O)CN1CCc2c(ccc(OCc3cnco3)c2Cl)C1)c1cncc(NC2CCOC2)c1 (stereo partly drawn) [Compound 359, N—((S)-3-(5-chloro-6-(oxazol-5-ylmethoxy)-3N-dihydroisoquinolin-2(1H)-yl)-2-hydroxypropyl)-5-((tetrahydrofuran-3-yl)amino)nicotinamide] | 0.5 to 5 µM | A (a Ki ratio greater than or equal to 10 fold between the Ki in the presence of SAM and the Ki in the presence of MTA) | 1 to 10 µM | C* (an IC50 ratio of less than 3 fold between the IC50 in the HAP1 MTAP-intact cell line and the HAP1 MTAP-deleted cell line) | 0.5 to 5 µM | ≥ 5 µM | ≥ 10 µM |
| CC(=O)N1CC(Nc2cc(C(=O)NC[C@H](O)CN3CCc4c(ccc(OCc5cnco5)c4Cl)C3)nc(C(C)(C)C)n2)C1 [Compound 360, (S)-6-((1-acetylazetidin-3-yl)amino)-2-(tert-butyl)-N-(3-(5-chloro-6-(oxazol-5-ylmethoxy)-3,4-dihydroisoquinolin-2(1H)-yl)-2-hydroxypropyl)pyrimidine-4-carboxamide] | 0.05 to 0.5 µM | A (a Ki ratio greater than or equal to 10 fold between the Ki in the presence of SAM and the Ki in the presence of MTA) | < 1 µM | A* (an IC50 ratio greater than or equal to 10 fold between the IC50 in the HAP1 MTAP-intact cell line and the HAP1 MTAP-deleted cell line) | 0.05 to 0.5 µM | 0.5 to 5 µM | ≥ 10 µM |
| O=C(NC[C@H](O)CN1CCc2c(ccc(OCc3cnco3)c2Br)C1)c1cc(NC2CCC2)ncn1 [Compound 361, (S)—N-(3-(5-bromo-6-(oxazol-5-ylmethoxy)-3,4-dihydroisoquinolin-2(1H)-yl)-2-hydroxypropyl)-6-(cyclobutylamino)pyrimidine-4-carboxamide] | 0.5 to 5 µM | A (a Ki ratio greater than or equal to 10 fold between the Ki in the presence of SAM and the Ki in the presence of MTA) | ≥ 10 µM | C* (an IC50 ratio of less than 3 fold between the IC50 in the HAP1 MTAP-intact cell line and the HAP1 MTAP-deleted cell line) | 0.5 to 5 µM | ≥ 5 µM | ≥ 10 µM |
